Test results as given in ChEMBL document CHEMBL1146237, “Antineoplastic agents. 561. Total synthesis of respirantin” (2007).
≈ marks a conversion by molar mass, not a printed value.

Tests used:
P388 = test: Growth inhibition of mouse P388 cells; type: functional
MCF7 = test: Growth inhibition of human MCF7 cells; type: functional

GI50 (MCF7)	Structure (SMILES)	GI50 (P388)
–	CCC(C)[C@@H]1OC(=O)[C@H](C)OC(=O)[C@@H](NC(=O)c2cccc(NC=O)c2O)[C@@H](C)OC(=O)[C@H](CC(C)C)OC(=O)C(C)(C)C(=O)[C@H](CC(C)C)NC1=O (some centres undefined) [RESPIRANTIN]	0.0037 µg/mL (≈ 0.00495 µM)
–	CCC(C)[C@@H]1OC(=O)[C@H](C)OC(=O)[C@@H](NC(=O)c2cccc(N)c2O)[C@@H](C)OC(=O)[C@H](CC(C)C)OC(=O)C(C)(C)C(=O)[C@H](CC(C)C)NC1=O (some centres undefined) [KITASTATIN]	0.045 µg/mL (≈ 0.0625 µM)
0.00062 µg/mL (≈ 0.000845 µM)	CCC(C)[C@@H]1OC(=O)[C@H](C)OC(=O)[C@@H](NC(=O)c2cccc(NC=O)c2O)[C@@H](C)OC(=O)[C@H](C(C)C)OC(=O)C(C)(C)C(=O)[C@H](CC(C)C)NC1=O (some centres undefined)	0.033 µg/mL (≈ 0.045 µM)
